This test deals with BacD (Bacillus subtilis, UniProt P39641). Nature of the test: LC/MS and 1H-NMR of dipeptide product. It counts as biochemical. The note with it: 1 mM substrate, 3 mM L-Ala, 3 mM ATP, 5 mM MgCl2, 20 uM BacD, 50 mM potassium phosphate pH 8.0, room temperature.
Chain of BacD (P39641 whole entry): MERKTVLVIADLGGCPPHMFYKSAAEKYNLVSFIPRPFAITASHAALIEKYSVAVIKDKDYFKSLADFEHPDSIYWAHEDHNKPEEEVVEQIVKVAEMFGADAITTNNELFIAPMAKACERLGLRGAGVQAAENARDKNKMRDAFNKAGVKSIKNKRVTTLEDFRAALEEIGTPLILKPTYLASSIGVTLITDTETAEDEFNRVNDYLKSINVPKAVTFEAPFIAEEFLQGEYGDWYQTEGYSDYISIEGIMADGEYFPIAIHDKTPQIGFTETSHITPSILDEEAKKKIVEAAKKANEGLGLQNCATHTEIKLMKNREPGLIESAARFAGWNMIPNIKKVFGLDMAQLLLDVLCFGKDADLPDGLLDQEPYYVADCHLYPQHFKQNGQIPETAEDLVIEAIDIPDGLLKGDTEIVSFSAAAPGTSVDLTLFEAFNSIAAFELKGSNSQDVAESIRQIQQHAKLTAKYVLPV

`N[C@@H](C[C@H]1C=C[C@H](O)CC1)C(=O)O` [4S-H4Tyr]: the “LC/MS and 1H-NMR of dipeptide product” value is “BacD would ligate L-Ala onto the N-terminus of both the 4S and 4R diastereomers”.
